Test [1] can be described thus: Ion selective electrode, potential differences on adding lead ions. The conditions noted are these: 1 mM Mg(OAc)2-HCl buffered solution pH 4; lead ions 10^-6 M to 10^-3 M. As for the experimental part:
A solution obtained by dissolving 1% by weight of CB[5]^OH prepared in Synthesis Example 2 in 0.1 mL of methanol, 33% by weight of polyvinylchloride used as a polymer support, 65.6% by weight of 2-nitrophenyloctylether used as a plasticizer and 0.4 mL of tetrahydrofuran dissolved in 0.4% by weight of potassium tetrakis(4-chlorophenyl)borate, were homogenously mixed, followed by slowly removing the solvent, to form an ion selective membrane. An ion selective electrode was fabricated with this ion selective membrane. An electrode with a silver wire coated with silver chloride in a 0.05 M aqueous KCl solution was used as a reference electrode.
The reference electrode and the ion selective electrode were immersed in 250 mL of 1 mM Mg(OAc)2—HCl buffered solution (pH=4), followed by continuously stirring for at least 1 hour until a membrane boundary potential was stabilized. Thereafter, potential differences were measured with adding lead ions to increase the concentration by 10 fold in the range of 10^−6 M to 10^−3 M using a micropipet at an interval of 100 seconds

The nature of test [2]: Binding constant measurement by microcalorimeter (VP-ITC) with KCl solution. The conditions noted are these: 0.05 M Tris-buffered solution pH 7.2; 5.5 mM host, 110 mM KCl. As for the experimental part: Since the hydroxycucurbituril derivatives obtained in Synthesis Example 1 have Lewis base atoms near the cavities of the molecule, they can effectively form a complex with metal ions or positively charged organic compounds. With these features, in order to investigate whether the hydroxycucurbituril derivatives having this property can be applied in manufacturing sensors for sensing metal ions or ammonium ions, the following example was carried out.
A 0.05 M Tris-buffered solution of pH 7.2 was prepared, and then a 5.5 mM hydroxycucurbit[5]uril (CB[5]^OH) solution prepared in Synthesis Example 2 and 110 mM of a KCl solution were prepared. Then, the binding constants of the cucurbit[5]uril derivative was measured using a microcalorimeter (VP-ITC, manufactured by MicroCal).

A short description of test [3]: Binding of ammonium ions in organic solvent (CD3CN). As to conditions: 5.5 mg host, 6.7 mg (NH4)+(BPh4)-, 0.5 mL CD3CN. The method, then:
To investigate whether ammonium ions present in an organic solvent can bind with CB[5]^OH, the following example was carried out.
5.5 mg of CB[5]^OH prepared in Synthesis Example 2 and 6.7 mg of (NH4)^+(BPh4)^− were dissolved in 0.5 mL CD3CN. Then, ammonium ions in (NH4)^+(BPh4)^− could bind with CB[5]^OH in an acetonitrile solution.

Test [4] in a line: Host-guest complex formation with acetylcholine chloride in D2O. Type of test: binding. As to conditions: 6.6 mg host, 2.0 mg acetylcholine chloride, 0.5 mL D2O. The method, then:
To investigate whether the hydroxycucurbituril derivatives prepared in Synthesis Example 1 can effectively transport physiologically active materials or drugs, the following example was carried out using acetylcholine chloride as a neurotransmitter.

Test [5] in a line: Host-guest complex formation with 1,4-phenylindiamine in D2O. Type of test: binding. As to conditions: 6.6 mg host, 1.2 mg 1,4-phenylindiamine, 0.5 mL D2O. As for the experimental part:
6.6 mg of hydroxycucurbit[6]uril (CB[6]^OH) prepared in Synthesis Example 1 and 1.2 mg of 1,4-phenylindiamine were dissolved in 0.5 mL of D2O.

Test [6] can be described thus: Host-guest complex formation with p-toluidine in D2O. The test is classed as binding. As to conditions: 6.6 mg host, 1.2 mg p-toluidine, 0.5 mL D2O. The method, then:
6.6 mg of hydroxycucurbit[6]uril (CB[6]^OH) prepared in Synthesis Example 1 and 1.2 mg of p-toluidine were dissolved in 0.5 mL of D2O.

The nature of test [7]: Host-guest complex formation with cyclopentane in D2O. The test is classed as binding. The conditions noted are these: 6.6 mg host, 10 μL cyclopentane, 0.5 mL D2O. The method, then: 6.6 mg of hydroxycucurbit[6]uril (CB[6]^OH) prepared in Synthesis Example 1 and 10 μL of cyclopentane were dissolved in 0.5 mL of D2O.
Test [8] can be described thus: Host-guest complex formation with isobutene gas in D2O. Type of test: binding. The conditions noted are these: 6.6 mg host in 0.5 mL D2O, isobutene gas injected.
Test [9] in a line: Host-guest complex formation with tetrahydrofuran in D2O. The conditions noted are these: 6.6 mg host, 10 μL tetrahydrofuran, 0.5 mL D2O. The test is classed as binding. As for the experimental part:
6.6 mg of hydroxycucurbit[6]uril (CB[6]^OH) prepared in Synthesis Example 1 and 10 μL of tetrahydrofuran were dissolved in 0.5 mL of D2O.

Test [10] in a line: Host-guest complex formation with p-toluidine hydrochloride in D2O. The test is classed as binding. The conditions noted are these: 6.6 mg host, 1.5 mg p-toluidine hydrochloride, 0.5 mL D2O. The method, then: 6.6 mg of hydroxycucurbit[6]uril (CB[6]^OH) prepared in Synthesis Example 1 and 1.5 mg of p-toluidine hydrochloride were dissolved in 0.5 mL of D2O.
The nature of test [11]: Ion selective electrode responses to ammonium, potassium, sodium, choline and acetylcholine ions. The method, then:
1% by weight of allyoxycucurbit[6]uril prepared in Synthesis Example 8, 33% by weight of polyvinylchloride and 66% by weight of 2-nitrophenyloctylether were dissolved in THF to form a membrane. With this membrane, an ion selective electrode was fabricated. Then, the responses of the electrode with respect to ammonium ion, potassium ion, sodium ion, choline ion and acetylcholine ion were measured in a 0.01M Tris-buffered solution. As a result, the selectivity of choline with respect to acetylcholine was −1.84, ammonium ion −1.31, potassium ion −0.90 and sodium ion −1.16, respectively. The allyloxycurcubit[6]uril according to the present invention can be advantageously used in clinical analysis by selective detection of a neurotransmitter in vivo, e.g., acetylcholine, instead of choline which is a major obstacle in analyzing acetylcholine. The ion selective electrode using allyoxycucurbit[6]uril can be used in measuring acetylcholine in a concentration range of 2.1×10^−6 M.

For the substance hydroxycucurbit[5]uril [CB[5]^OH], the “ion selective electrode detection of heavy metal ions (lead)” value in test [1] was “could be used in detecting harmful heavy metal ions remaining in water”. For the same substance, the “binding with alkali metal ions and ammonium ions (microcalorimeter)” value in test [2] is “could selectively bind with alkali metal ions, as well as with ammonium ions”. Besides, the “binding of ammonium ions of (NH4)+(BPh4)- in acetonitrile solution” value in test [3] is “could bind”.

Turning to hydroxycucurbit[6]uril [CB[6]^OH], the “host-guest complex formation with acetylcholine chloride” value in test [4] is on record as “forming a 1:1 host-guest complex”. Besides, the “host-guest complex formation with 1,4-phenylindiamine” value in test [5] is “Quantitative formation of a 1:1 host-guest complex”. Further, the “host-guest complex formation with p-toluidine” value in [6] is “Quantitative formation of a 1:1 host-guest complex”. The “host-guest complex formation with cyclopentane” value in [7] was “Quantitative formation of a 1:1 host-guest complex”. Moreover, in [8], the “host-guest complex formation with isobutene gas” value is recorded as “forming a 1:1 host-guest complex”. Moreover, the “host-guest complex formation with tetrahydrofuran” value in [9] is recorded as “Quantitative formation of a 1:1 host-guest complex”. In [10], the “host-guest complex formation with p-toluidine hydrochloride” value is “Quantitative formation of a 1:1 host-guest complex”.

As to “Allyloxycucurbit[6]uril [allyoxycucurbit[6]uril]”, the “concentration range in which acetylcholine can be measured” value in [11] worked out at 2.1 µM.

The values are drawn from patent US8058451B2, “Hydroxycucurbituril derivatives, their preparation methods and uses” (Postech Foundation, priority 2002, dated 2011).
